Measurements from patent publication US20020147230A1, “Aminal Diones as potassium channel openers” (priority 2001, published 2002).
pEC50: −log10 of the molar value. Where two headings read alike, the source gives them in different places.

Experiments:
[1] = tested on: primary cultured guinea-pig urinary bladder (GPB) cells; assay: Membrane hyperpolarization (MHP) assay, DiBAC(4)3 / FLIPR; assay type: cell-based; settings: for pEC50: membrane hyperpolarization in guinea-pig bladder cells
Description: Compounds were evaluated for potassium channel opening activity using primary cultured guinea-pig urinary bladder (GPB) cells.
For the preparation of urinary bladder smooth muscle cells, urinary bladders were removed from male guinea-pigs (Hartley, Charles River, Wilmington, Mass.) weighing 300-400 g and placed in ice-cold Ca^2+-free Krebs solution (composition, mM: KCl, 2.7; KH2PO4, 1.5; NaCl, 75; Na2HPO4, 9.6; Na2HPO4.7H2O, 8; MgSO4, 2; glucose, 5; HEPES, 10; pH 7.4). Cells were isolated by enzymatic dissociation as previously described with minor modifications (Klockner and Isenberg, Pflugers Arch. (1985), 405, 329-339), hereby incorporated by reference. The bladder was cut into small sections and incubated in 5 mL of the Kreb's solution containing 1 mg/mL collagenase (Sigma, St. Louis, Mont.) and 0.2 mg/mL pronase (Calbiochem, La Jolla, Calif.) with continuous stirring in a cell incubator for 30 minutes. The mixture was then centrifuged at 1300× g for 5 minutes, and the pellet resuspended in Dulbecco's PBS (GIBCO, Gaithersburg, Md.) and recentrifuged to remove residual enzyme. The cell pellet was resuspended in 5 mL growth media (composition: Dulbecco's modified Eagle's medium supplemented with 10% fetal bovine serum, 100 units/mL penicillin, 100 units/mL streptomycin and […] amphotericin B) and further dissociated by pipetting the suspension through a flame-polished Pasteur pipette and passing it through a polypropylene mesh membrane (Spectrum, Houston, Tex.). The cell density was adjusted to 100,000 cells/mL by resuspension in growth media. Cells were plated in clear-bottomed black 96-well plates (Packard) for membrane potential studies at a density of 20,000 cells/well and maintained in a cell incubator with 90% air:10% CO2 until confluent. Cells were confirmed to be of smooth muscle type by cytoskeletal staining using a monoclonal mouse anti human-α-smooth muscle actin (Biomeda, Foster City, Calif.).
Functional activity at potassium channels was measured by evaluating changes in membrane potential using the bis-oxonol dye DiBAC(4)3 (Molecular Probes) in a 96-well cell-based kinetic assay system, Fluorescent Imaging Plate Reader (FLIPR) (K. S. Schroeder et al., J. Biomed. Screen., v. 1 pp. 7581 (1996)), hereby incorporated by reference. DiBAC(4)3 is an anionic potentiometric probe which partitions between cells and extracellular solution in a membrane potential-dependent manner. With increasing membrane potential (for example, K^+ depolarization), the probe further partitions into the cell; this is measured as an increase in fluorescence due to dye interaction with intracellular lipids and proteins. Conversely, decreasing membrane potential (hyperpolarization by potassium channel openers) evokes a decrease in fluorescence.
Confluent guinea-pig urinary bladder cells cultured in black clear-bottomed 96-well plates were rinsed twice with […] assay buffer (composition, mM: HEPES, 20; NaCl, 120; KCl, 2; CaCl2, 2; MgCl2, 1; glucose, 5; pH 7.4 at 25° C.) containing 5 μM DiBAC(4)3 and incubated with […] of the buffer in a cell incubator for 30 minutes at 37° C. to ensure dye distribution across the membrane. After recording the baseline fluorescence for 5 minutes, the reference or test compounds, prepared at 10 times the concentration in the assay buffer, were added directly to the wells. Changes in fluorescence were monitored for an additional 25 minutes. Hyperpolarization responses were corrected for any background noise and were normalized to the response observed with 10 μM of the reference compound P1075 (assigned as 100%), a potent opener of smooth muscle KATP channels (Quast et al., Mol. Pharmacol., v. 43 pp. 474-481 (1993)).
Routinely, five concentrations of P1075 or test compounds (log or half-log dilutions) were evaluated and the maximal steady-state hyperpolarization values (expressed as % relative to P1075) plotted as a function of concentration. […]

[2] = tested on: tissue strips obtained from Landrace pig bladders; assay: Functional potassium channel opening activity in isolated bladder strips (field-stimulated twitch); settings: for pEC50: amount causing 50% of the agent's maximal response, read-out: ED50 (the source's name)
Description: Compounds were evaluated for functional potassium channel opening activity using tissue strips obtained from Landrace pig bladders.
Landrace pig bladders were obtained from female Landrace pigs of 930 kg. Landrace pigs were euthanized with an intraperitoneal injection of pentobarbital solution, Somlethal®, J. A. Webster Inc., Sterling Mass. The entire bladder was removed and immediately placed into Krebs Ringer bicarbonate solution (composition, mM: NaCl, 120; NaHCO3, 20; dextrose, 11; KCl, 4.7; CaCl2, 2.5; MgSO4, 1.5; KH2PO4, 1.2; K2EDTA, 0.01, equilibrated with 5% CO2/95% O2pH 7.4 at 37° C.). Propranolol (0.004 mM) was included in all of the assays to block β-adrenoceptors. The trigonal and dome portions were discarded. Strips 3-5 mm wide and 20 mm long were prepared from the remaining tissue cut in a circular fashion. The mucosal layer was removed. One end was fixed to a stationary glass rod and the other to a Grass FT03 transducer at a basal preload of 1.0 gram. Two parallel platinum electrodes were included in the stationary glass rod to provide field stimulation of 0.05 Hz, 0.5 milli-seconds at 20 volts. This low frequency stimulation produced a stable twitch response of 100-500 centigrams. Tissues were allowed to equilibrate for at least 60 minutes and primed with 80 mM KCl. A control concentration response curve (cumulative) was generated for each tissue using the potassium channel opener P1075 as the control agonist. […] After a 60 minute rinsing period, a concentration response curve (cumulative) was generated for the test agonist in the same fashion as that used for the control agonist P1075. The maximal efficacy of each compound (expressed as % relative to P1075) is reported. The amount of agent necessary to cause 50% of the agent's maximal response (ED50) was calculated using “ALLFIT” (DeLean et al., Am. J. Physiol., 235, E97 (1980)), hereby incorporated by reference. Agonist potencies were also expressed as an index relative to P1075. The index was calculated by dividing the ED50 for P1075 by the ED50 for the test agonist in a given tissue. Each tissue was used for only one test agonist, and the indices obtained from each tissue were averaged to provide an average index of potency.

Compound: C=CCC(C)(C)C(NC(=O)c1ccc(Cl)cc1)Nc1c(Nc2cccnc2)c(=O)c1=O (stereo not drawn) [Example 17, 4-chloro-N-(-1-{[3,4-dioxo-2-(3-pyridinylamino)-1-cyclobuten-1-yl]amino}-2,2-dimethyl-4-pentenyl)benzamide]
- pEC50 ([1]; Cavia porcellus): 6.74
- pEC50 ([2]; Sus scrofa, Landrace pig bladder strips): 5.24
- Emax ([2]; Sus scrofa, maximal efficacy relative to P1075, Landrace pig bladder strips, field stimulation 0.05 Hz): 92%

Compound: CC(C)(Cc1ccccc1)C(NC(=O)c1ccc(Cl)cc1)Nc1c(Nc2cccnc2)c(=O)c1=O (stereo not drawn) [Example 18]
- Maximal Response (% P1075) ([1]; maximal steady-state hyperpolarization, normalized to 10 μM P1075 (100%), GPB cells): 97 % P1075
- pEC50 [1]: 6.29
- Index ([2]; ED50 for P1075 divided by ED50 for the test agonist in a given tissue, averaged): 0.055
- pEC50 ([2]; Landrace pig bladder strips): 4.77
- Efficacy (% P1075) ([2]; maximal efficacy relative to P1075, Landrace pig bladder strips, field stimulation 0.05 Hz): 62 % P1075

Compound: CC(C)(C)C(NC(=O)c1ccc(I)cc1)NS(=O)(=O)Nc1cccnc1 (stereo not drawn) [Example 34, N-(2,2-dimethyl-1-{[(3-pyridinylamino)sulfonyl]amino}propyl)-4iodobenzamide]
- melting point: 177 to 178 °C
